The bioavailability is dose-corrected exposure relative to a reference, in per cent. A lower bioavailability goes with little systemic uptake. One may read the half-life as the time needed for the level to fall by half in the phase considered. High values mean slow decline, low ones rapid decline. In general, EC50 refers to the midpoint of the concentration-response curve. Higher therefore signals lower potency in that assay.

The nature of series [1]: Bioavailability in dog at 180 mg. The conditions noted are these: in vivo. Format: ADME, organism-based, Canis lupus familiaris.
Series [2] in a line: Half-life in human at 20 mg via smoking measured after 0.05 to 72 hrs by gas chromatograph mass spectrometry. It counts as ADME. The conditions noted are these: in vivo, inhaled or intranasal, time 0.05-72 hrs.
The target in a further series is T1, Cytochrome P450 2B6 (Homo sapiens, UniProt P20813).
T1 sequence (P20813 whole entry): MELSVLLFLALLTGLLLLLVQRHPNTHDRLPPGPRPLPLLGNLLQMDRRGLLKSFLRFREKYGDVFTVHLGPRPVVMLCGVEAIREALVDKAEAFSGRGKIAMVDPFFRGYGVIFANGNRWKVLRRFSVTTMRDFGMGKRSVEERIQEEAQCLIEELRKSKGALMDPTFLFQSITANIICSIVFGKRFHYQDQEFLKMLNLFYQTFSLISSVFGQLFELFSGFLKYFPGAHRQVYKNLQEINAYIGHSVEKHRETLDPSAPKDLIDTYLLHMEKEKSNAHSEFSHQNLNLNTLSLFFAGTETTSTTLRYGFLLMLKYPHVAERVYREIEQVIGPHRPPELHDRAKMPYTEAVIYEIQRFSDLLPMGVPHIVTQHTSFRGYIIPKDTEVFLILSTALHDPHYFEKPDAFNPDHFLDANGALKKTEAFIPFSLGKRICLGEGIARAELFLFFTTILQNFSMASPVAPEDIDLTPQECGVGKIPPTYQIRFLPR
In words: Mixed type inhibition of human recombinant CYP2B6 expressed in baculovirus-infected insect cells using […] as substrate preincubated for 5 mins followed by NADPH-generating system addition by Lineweaver-Burk plot analysis. Format: ADME.

A further series has as its target T2, Cytochrome P450 1A1 (Homo sapiens, UniProt P04798).
T2 sequence (P04798 whole entry): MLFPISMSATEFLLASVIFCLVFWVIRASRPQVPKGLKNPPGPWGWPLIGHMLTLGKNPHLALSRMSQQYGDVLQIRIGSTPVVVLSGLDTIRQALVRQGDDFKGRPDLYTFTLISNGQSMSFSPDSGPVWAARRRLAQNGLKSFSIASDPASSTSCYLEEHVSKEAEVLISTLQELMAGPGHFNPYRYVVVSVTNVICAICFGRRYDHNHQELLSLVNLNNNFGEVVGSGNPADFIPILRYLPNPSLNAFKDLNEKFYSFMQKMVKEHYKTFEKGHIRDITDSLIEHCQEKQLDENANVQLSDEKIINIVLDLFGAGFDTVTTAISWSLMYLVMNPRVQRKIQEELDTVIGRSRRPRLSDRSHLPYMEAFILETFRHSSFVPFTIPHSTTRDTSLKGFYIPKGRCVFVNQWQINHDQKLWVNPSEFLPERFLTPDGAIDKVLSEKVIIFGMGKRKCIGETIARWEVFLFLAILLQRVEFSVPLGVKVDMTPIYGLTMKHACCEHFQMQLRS
As to the kind of experiment: Competitive inhibition of human recombinant CYP1A1 using 7-Ethoxyresorufin as substrate by Lineweaver-Burk plot analysis. It counts as ADME. The conditions noted are these: read-out: Ki(app).

Series [3] is described as follows: Elimination half-life in human at 20 mg using aerosol spray measured for 6 weeks. Format: ADME. The conditions noted are these: in vivo, inhaled_or_intranasal, 1008 h.
Series [4] is described as follows: Elimination rate constant in human using oromucosal-spray measured for 6 weeks.
The target of series [5] is T3, Steroid 17-alpha-hydroxylase/17,20 lyase (Rattus norvegicus, UniProt P11715).
T3 sequence (P11715 whole entry): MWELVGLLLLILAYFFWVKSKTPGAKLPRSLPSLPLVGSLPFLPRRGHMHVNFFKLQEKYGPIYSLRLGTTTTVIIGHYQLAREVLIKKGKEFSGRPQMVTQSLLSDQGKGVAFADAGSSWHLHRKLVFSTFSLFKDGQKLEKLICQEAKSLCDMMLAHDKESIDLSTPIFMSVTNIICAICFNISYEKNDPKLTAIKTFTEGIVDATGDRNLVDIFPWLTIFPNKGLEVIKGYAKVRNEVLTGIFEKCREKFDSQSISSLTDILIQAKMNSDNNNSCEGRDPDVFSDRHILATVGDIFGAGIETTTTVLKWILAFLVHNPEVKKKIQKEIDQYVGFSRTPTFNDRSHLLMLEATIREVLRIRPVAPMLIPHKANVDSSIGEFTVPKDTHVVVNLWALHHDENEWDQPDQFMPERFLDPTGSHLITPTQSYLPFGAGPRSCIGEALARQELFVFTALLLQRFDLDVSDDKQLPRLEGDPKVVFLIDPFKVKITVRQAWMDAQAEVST
In words: Mixed type inhibition of CYP17 in Sprague-Dawley rat testis microsomes assessed as reduction in 17alpha-Hydroxylase activity in presence of NADPH-generating system incubated for 2 mins by Lineweaver-Burk plot analysis. Format: ADME.

The next series concerns the target Cytochrome P450 3A7 (Homo sapiens, UniProt P24462). As to the kind of experiment: Mixed type inhibition of human recombinant CYP3A7 expressed in baculovirus-infected insect cells using diltiazem as substrate incubated for 30 mins followed by NADPH-generating system addition by Michaelis-Menten plot analysis. Format: ADME.
Series [6] in a line: Critical aggregation concentration of compound by dynamic light scattering. It counts as physicochemical.
Series [7] deals with T4, Alpha-2B adrenergic receptor (Homo sapiens, UniProt P18089).
T4 sequence (P18089 whole entry): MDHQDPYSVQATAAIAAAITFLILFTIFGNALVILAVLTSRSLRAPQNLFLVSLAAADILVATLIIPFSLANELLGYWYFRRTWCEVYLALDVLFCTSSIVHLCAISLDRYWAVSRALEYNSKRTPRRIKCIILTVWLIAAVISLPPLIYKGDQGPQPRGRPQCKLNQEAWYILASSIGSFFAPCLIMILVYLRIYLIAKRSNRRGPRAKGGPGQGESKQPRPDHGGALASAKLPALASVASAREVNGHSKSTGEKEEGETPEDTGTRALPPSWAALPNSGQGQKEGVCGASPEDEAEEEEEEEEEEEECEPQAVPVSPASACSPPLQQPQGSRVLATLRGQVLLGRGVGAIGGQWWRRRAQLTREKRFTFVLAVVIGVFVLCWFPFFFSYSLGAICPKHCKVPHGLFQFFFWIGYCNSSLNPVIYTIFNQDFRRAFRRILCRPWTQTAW
As to the kind of experiment: Inhibition of alpha2B receptor (unknown origin).

Series [8] addresses T5, 5-hydroxytryptamine receptor 1A (Homo sapiens, UniProt P08908).
T5 sequence (P08908 whole entry): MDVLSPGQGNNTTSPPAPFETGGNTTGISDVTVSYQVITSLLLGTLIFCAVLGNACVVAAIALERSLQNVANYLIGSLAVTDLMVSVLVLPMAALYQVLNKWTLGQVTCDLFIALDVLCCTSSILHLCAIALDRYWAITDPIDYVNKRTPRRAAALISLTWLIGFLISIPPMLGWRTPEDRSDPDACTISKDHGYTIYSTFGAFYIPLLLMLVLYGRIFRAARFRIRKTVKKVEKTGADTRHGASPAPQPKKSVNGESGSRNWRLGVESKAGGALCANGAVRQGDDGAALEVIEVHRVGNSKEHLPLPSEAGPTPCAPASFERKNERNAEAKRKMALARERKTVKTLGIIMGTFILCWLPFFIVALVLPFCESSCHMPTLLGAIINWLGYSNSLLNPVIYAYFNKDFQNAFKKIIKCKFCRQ
As to the kind of experiment: Displacement of [3H]8-OH-DPAT from human 5-HT1a receptor expressed in CHO cells incubated for 30 mins by liquid scintillation counting method.

Cytochrome P450 3A7, sequence (P24462 whole entry): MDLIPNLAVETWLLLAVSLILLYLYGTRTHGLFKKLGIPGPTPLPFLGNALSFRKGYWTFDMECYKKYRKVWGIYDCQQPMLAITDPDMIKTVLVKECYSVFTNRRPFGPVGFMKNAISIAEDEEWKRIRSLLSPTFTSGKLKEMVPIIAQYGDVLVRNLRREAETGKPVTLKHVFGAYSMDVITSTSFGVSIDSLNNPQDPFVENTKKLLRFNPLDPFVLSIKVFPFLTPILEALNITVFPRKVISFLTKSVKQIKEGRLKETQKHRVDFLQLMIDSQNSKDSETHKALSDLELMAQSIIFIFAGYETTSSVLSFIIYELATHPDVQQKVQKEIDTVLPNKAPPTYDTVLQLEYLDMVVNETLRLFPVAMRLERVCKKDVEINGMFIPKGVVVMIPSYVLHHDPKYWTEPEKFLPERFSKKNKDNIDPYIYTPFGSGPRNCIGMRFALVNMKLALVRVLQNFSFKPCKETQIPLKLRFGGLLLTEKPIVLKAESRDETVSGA

In the case of `C=C(C)[C@@H]1CCC(C)=C[C@H]1c1c(O)cc(CCCCC)cc1O` [CANNABIDIOL], the bioavailability in series [1] stood at 13%. Also, the half-life in [2] was 1860 min. For the same compound, the Ki at Cytochrome P450 2B6 was found to be 690 nM; at Cytochrome P450 1A1, 160 nM; in series [5] it was 124 µM; at Cytochrome P450 3A7, 12.3 µM; in series [7], 3.2 µM. The “beta t1/2” value in [3] was 2 h. In [4], this compound had a k el at 1008 h of 3.33e-05 s⁻¹. Besides, the CAC in series [6] stood at 12.5 µM. For the same compound, the EC50 in [8] was determined as 8 µM.

For the origin of these results see ChEMBL document CHEMBL4680278 (J Med Chem, 2020).
